{"source": "paper PMC5793061", "about": "“Functional Expression and Characterization of the Recombinant N-Acetyl-Glucosamine/N-Acetyl-Galactosamine-Specific Marine Algal Lectin BPL3” (Marine Drugs, 2018)", "assay_type_in_all_cases": "binding", "key": {"rD2BPL3 [1]": {"target": "T1, rD2BPL3 (Bryopsis plumosa, UniProt A0A1J0CRG2)", "T1 construct": "artificial tandem repeat of two identical BPL3 domains in one chain, 4-residue linker", "T1 sequence (A0A1J0CRG2 29-134)": "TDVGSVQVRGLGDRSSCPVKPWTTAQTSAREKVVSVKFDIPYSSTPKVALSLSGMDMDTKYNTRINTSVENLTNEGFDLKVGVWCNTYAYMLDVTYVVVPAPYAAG", "test": "inhibition of hemagglutination, human erythrocytes", "details": "PBS, 4 HU lectin, human type B erythrocytes, two-fold dilutions", "source_text": "inhibition of hemagglutination, human erythrocytes on rD2BPL3"}, "native BPL3 [2]": {"target": "T2, native BPL3 (Bryopsis plumosa, UniProt A0A1J0CRG2)", "T2 construct": "native purification from alga by GalNAc-agarose, eluted with GlcNAc; not pure, BPL4 band seen; may consist of 2-6 domains", "T2 sequence (A0A1J0CRG2 29-134)": "T1 sequence (A0A1J0CRG2 29-134)", "test": "inhibition of hemagglutination, human erythrocytes", "details": "PBS, 4 HU lectin, human type B erythrocytes, two-fold dilutions", "source_text": "inhibition of hemagglutination, human erythrocytes on native BPL3"}, "rD2BPL3 [3]": {"target": "T1, rD2BPL3", "test": "glycan microarray, biotinylated lectin, Cy3-streptavidin", "details": "50 μg/mL lectin; glycan immobilised through spacer", "source_text": "glycan microarray, biotinylated lectin, Cy3-streptavidin on rD2BPL3"}, "native BPL3 [4]": {"target": "T2, native BPL3", "test": "glycan microarray, biotinylated lectin, Cy3-streptavidin", "details": "50 μg/mL lectin; glycan immobilised through spacer", "source_text": "glycan microarray, biotinylated lectin, Cy3-streptavidin on native BPL3"}}}
{"compound": "CC(=O)N[C@H]1C(O)O[C@H](CO)[C@H](O)[C@@H]1O", "note": "(stereo partly drawn) [N-acetyl-D-galactosamine]", "values": [{"measurement": "Minimum Inhibitory Concentration / rD2BPL3", "setting": "rD2BPL3 [1]", "result": 31.25, "unit": "mM"}, {"measurement": "Minimum Inhibitory Concentration / Native BPL3", "setting": "native BPL3 [2]", "result": 62.5, "unit": "mM"}]}
{"compound": "CC(=O)N[C@H]1C(O)O[C@H](CO)[C@@H](O)[C@@H]1O", "note": "(stereo partly drawn) [N-acetyl-D-glucosamine]", "values": [{"measurement": "Minimum Inhibitory Concentration / rD2BPL3", "setting": "rD2BPL3 [1]", "result": 62.5, "unit": "mM"}, {"measurement": "Minimum Inhibitory Concentration / Native BPL3", "setting": "native BPL3 [2]", "result": 125, "unit": "mM"}]}
{"compound": "D-Cellose-β-Sp1 [compound 87]", "values": [{"measurement": "RFU (Normalized) / rD2BPL3", "setting": "rD2BPL3 [3]", "result": 1119, "unit": "RFU"}]}
{"compound": "GlcNAc-β-1,2-Man-α-Sp [compound 45]", "values": [{"measurement": "RFU (Normalized) / rD2BPL3", "setting": "rD2BPL3 [3]", "result": 1290, "unit": "RFU"}]}
{"compound": "α-Fuc-Sp [compound 4]", "values": [{"measurement": "RFU (Normalized) / rD2BPL3", "setting": "rD2BPL3 [3]", "result": 1313, "unit": "RFU"}]}
{"compound": "α-Man-Sp [compound 3]", "values": [{"measurement": "RFU (Normalized) / rD2BPL3", "setting": "rD2BPL3 [3]", "result": 1322, "unit": "RFU"}, {"measurement": "RFU (Normalized) / Native BPL3", "setting": "native BPL3 [4]", "result": 1025, "unit": "RFU"}]}
